Where two headings read alike, the source gives them in different places.
Legend:
in vivo = details: C57BL/6, mouse
[1] = test system: influenza A and B viruses; design: method as in Laure et al., 2020; details: in vitro, ref Laure et al., 2020, read-out: EC50 antiviral efficacy; cited from earlier work
[2] = design: method as in Koch-Heier et al., manuscript in preparation; details: mice, 75 mg/kg; previously unpublished preclinical data; ref Koch-Heier et al., manuscript in preparation; cited from earlier work
[3] = adverse events in healthy human volunteers (phase 1); assay type: in vivo; details: n = 8
Excerpt: Healthy men and women between 18 and 55 years of age (inclusive), who weighed at least 50 kg with a body mass index (BMI) between 18.0 and 31.0 kg/m^2 (inclusive) were enrolled in this study. Exclusion criteria were clinically significant illnesses, positive urine test for selected drugs of abuse, positive alcohol breath test at screening and upon check-in at the clinical site, positive hepatitis panel (including hepatitis B surface antigen [HBsAg] and anti-hepatitis C virus [HCV] antibodies), and positive screens for human immunodeficiency virus (HIV) antibody. This Phase 1 study was a randomized, double-blind, placebo-controlled study (clinicaltrials.gov: NCT04385420) consisting of two parts. Part 1 was a SAD study with 40 healthy volunteers who were randomized to active or placebo treatment in a 4:1 ratio (4 cohorts with n (Zapnometinib) = 8; n (placebo) = 2 in each cohort). Subjects receiving active treatment were treated with either 100 mg, 300 mg, 600 mg, or 900 mg zapnometinib. Part 2 was a MAD study with 30 healthy volunteers in three cohorts with the same randomization as in the SAD part (3 cohorts with n (Zapnometinib) = 8; n (placebo) = 2 in each cohort). Each subject in the MAD cohorts received doses of zapnometinib of either 100 mg, 300 mg, or 600 mg once daily for seven days, or placebo. The safety assessment in this study included monitoring of adverse events (AEs), clinical laboratory tests, electrocardiograms (ECG), vital signs, and physical examination. The study protocol and its amendments were reviewed by the Commissie voor Medische Ethiek ZNA, Antwerp, Belgium. This study was conducted in accordance with the ethical principles that have their origin in the Declaration of Helsinki and the International Council for Harmonization of Technical Requirements for Pharmaceuticals for Human Use (ICH) Note for Guidance on Good Clinical Practice (GCP) (CPMP/ICH/135/95) and with applicable local requirements.

MEK1/2 = experiment: phosphorylation of MEK and ERK in PMA-stimulated human PBMCs (Wes); details: 50 µg/ml 1 h, then 400 nM PMA 30 min
Method: PBMCs from healthy donors were isolated, treated with zapnometinib, stimulated with Phorbol-12-Mystrat-13-Acetat (PMA) and analyzed for the reduction of MEK and ERK phosphorylation.
PBMCs of 30 ml human blood were isolated using SepMate^TM tubes (Stemcell Technologies, Vancouver, Canada) by density gradient centrifugation according to manufacturer’s instructions. The PBMCs were then cultured in the plasma and treated with 50 µg/ml zapnometinib or DMSO for 1 h at 37°C and 5% CO2. Afterwards, the PBMCs were stimulated with 400 nM PMA (Sigma-Aldrich, St. Louis, Missouri, USA) for 30 minutes at 37°C and 5% CO2. After stimulation, the cells were washed twice with PBS and centrifuged 8 minutes at 300 x g at RT. The cells were then lysed in 1x RIPA buffer and analyzed with Wes™ for phosphorylation of ERK and MEK using specific antibodies as described in the Pharmacodynamic assessment to determine level of MEK inhibition section. […]
PBMCs of healthy human volunteers were treated for 1 h with 50 µg/ml zapnometinib or DMSO as solvent control and subsequently stimulated for 30 minutes with 400 nM PMA. Cell lysates of the PBMCs were then analyzed with Wes™ for phosphorylated and total protein, and the ratio was used to calculate the phosphorylation levels. […]

clinical = details: both, human, in vivo; for AUC(0-t): healthy volunteers, n = 8
[4] = Syrian hamsters
SARS-CoV-2 = test system: SARS-CoV-2; design: method as in Schreiber et al., 2022; details: reduction in viral growth in cell lines; ref Schreiber et al., 2022; cited from earlier work

## O=C(O)c1ccc(F)c(F)c1Nc1ccc(I)cc1Cl [zapnometinib, 2-(2-Chloro-4-Iodophenylamino)-N-3,4-Difluoro benzoic acid]
In vivo
  half-life: 8 h
In vivo; po, 25 mg/kg
  AUC: 1390 µg·h/mL
  Cmax: 69000 ± 24000 ng/mL
In vivo; po, 25 mg/kg, Tmax,1, mice, 25 mg/kg p.o., after first treatment
  Tmax: 2 h
In vivo; po, 25 mg/kg, Tmax,2, mice, 25 mg/kg p.o. twice, second dose at 8 h
  Tmax: 10 h
[1]
  EC50: 4.2 to 6.4 µM
[2]
  tolerability: well tolerated
[3]; 100 mg
  Abdominal pain: 0 n (%)
  Back pain: 0 n (%)
  Diarrhea: 0 n (%)
  Dizziness: 0 n (%)
  Erythema: 0 n (%)
  Gastrointestinal Disorders: 0 n (%)
  Headache: 0 n (%)
  Hepatic enzyme increase: 0 n (%)
  Infections and Infestations: 0 n (%)
  Investigations: 0 n (%)
  Nasopharyngitis: 0 n (%)
  Neck pain: 0 n (%)
  Nervous System Disorders: 0 n (%)
  Respiratory, thoracic and Mediastinal Disorders: 0 n (%)
  Rhinorrhea: 0 n (%)
  Skin and Subcutaneous Disorders: 0 n (%)
  Throat irritation: 0 n (%)
[3]; 300 mg
  Abdominal pain: 0 n (%)
  Back pain: 1 (12.5) n (%)
  Diarrhea: 0 n (%)
  Dizziness: 0 n (%)
  Erythema: 1 (12.5) n (%)
  Gastrointestinal Disorders: 0 n (%)
  Headache: 3 (37.5) n (%)
  Hepatic enzyme increase: 1 (12.5) n (%)
  Infections and Infestations: 1 (12.5) n (%)
  Investigations: 1 (12.5) n (%)
  Nasopharyngitis: 1 (12.5) n (%)
  Neck pain: 1 (12.5) n (%)
  Nervous System Disorders: 3 (37.5) n (%)
  Respiratory, thoracic and Mediastinal Disorders: 1 (12.5) n (%)
  Rhinorrhea: 1 (12.5) n (%)
  Skin and Subcutaneous Disorders: 1 (12.5) n (%)
  Throat irritation: 0 n (%)
[3]; 600 mg
  Abdominal pain: 0 n (%)
  Back pain: 0 n (%)
  Diarrhea: 0 n (%)
  Dizziness: 0 n (%)
  Erythema: 0 n (%)
  Gastrointestinal Disorders: 0 n (%)
  Headache: 1 (12.5) n (%)
  Hepatic enzyme increase: 0 n (%)
  Infections and Infestations: 0 n (%)
  Investigations: 0 n (%)
  Nasopharyngitis: 0 n (%)
  Neck pain: 0 n (%)
  Nervous System Disorders: 1 (12.5) n (%)
  Respiratory, thoracic and Mediastinal Disorders: 0 n (%)
  Rhinorrhea: 0 n (%)
  Skin and Subcutaneous Disorders: 0 n (%)
  Throat irritation: 0 n (%)
[3]; 900 mg
  Abdominal pain: 1 (12.5) n (%)
  Back pain: 0 n (%)
  Diarrhea: 1 (12.5) n (%)
  Dizziness: 0 n (%)
  Erythema: 1 (12.5) n (%)
  Gastrointestinal Disorders: 2 (25.0) n (%)
  Headache: 1 (12.5) n (%)
  Hepatic enzyme increase: 0 n (%)
  Infections and Infestations: 0 n (%)
  Investigations: 0 n (%)
  Nasopharyngitis: 0 n (%)
  Neck pain: 0 n (%)
  Nervous System Disorders: 1 (12.5) n (%)
  Respiratory, thoracic and Mediastinal Disorders: 1 (12.5) n (%)
  Rhinorrhea: 0 n (%)
  Skin and Subcutaneous Disorders: 1 (12.5) n (%)
  Throat irritation: 1 (12.5) n (%)
MEK1/2
  phosphorylation of MEK: directly prevents the phosphorylation of MEK
clinical
  half-life: 19 h
clinical; po, 100 mg
  Cmax: 9000 ± 2000 ng/mL
  Tmax: 2 h
  half-life: 19.6 ± 5.3 h
clinical; po, 100 mg, AUC0-t, single oral dose 100 mg
  AUC(0-t): 115 ± 10 µg·h/mL
clinical; po, 100 mg, AUC0–24 h, single oral dose 100 mg
  AUC(0-t): 84 ± 9 µg·h/mL
clinical; po, 300 mg
  Cmax: 13000 ± 4000 ng/mL
  Tmax: 4 h
  half-life: 19.8 ± 5.8 h
clinical; po, 300 mg, AUC0-t, single oral dose 300 mg
  AUC(0-t): 241 ± 18 µg·h/mL
clinical; po, 300 mg, AUC0–24 h, single oral dose 300 mg
  AUC(0-t): 157 ± 16 µg·h/mL
clinical; po, 600 mg
  Cmax: 35000 ± 7000 ng/mL
  Tmax: 4 h
  half-life: 21.9 ± 6.8 h
clinical; po, 600 mg, AUC0-t, single oral dose 600 mg
  AUC(0-t): 617 ± 51 µg·h/mL
clinical; po, 600 mg, AUC0–24 h, single oral dose 600 mg
  AUC(0-t): 411 ± 44 µg·h/mL
clinical; po, 900 mg
  Cmax: 46000 ± 16000 ng/mL
  Tmax: 4 h
  half-life: 23.7 ± 8.2 h
clinical; po, 900 mg, AUC0-t, single oral dose 900 mg
  AUC(0-t): 1000 µg·h/mL
clinical; po, 900 mg, AUC0–24 h, single oral dose 900 mg
  AUC(0-t): 629 ± 83 µg·h/mL
[4]; 15 mg/kg BID p.o.
  mean plasma concentration at 24 h: 1000 ± 200 ng/mL
[4]; 15 mg/kg BID p.o., before second dose
  plasma concentration 12 h after the first treatment: 2000 ± 100 ng/mL
[4]; 60 mg/kg OD p.o.
  mean plasma concentration at 24 h: 200 ± 600 ng/mL
SARS-CoV-2
  anti-SARS-CoV-2 activity: potent anti-SARS-CoV-2 activity

Source: paper PMC9240354, “Pharmacokinetics, Pharmacodynamics and Antiviral Efficacy of the MEK Inhibitor Zapnometinib in Animal Models and in Humans” (Frontiers in Pharmacology, 2022)
